# Measurements from ChEMBL document CHEMBL1201862, “PubChem BioAssay data set” (2004).
#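 Cultured in 96-well plates, cells were exposed to test compound for 48 hours across five concentrations. GI50: concentration for 50% inhibition of growth.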 Calls of active or inactive are those of the source. No stated cut-off is given here; in the data, active = GI50 up to about 1.1 µM and inactive = higher.
# Assays:
# Assay in all cases: DTP human tumour cell line panel, 48 h
# [1] = test system: OVCAR-5
# [2] = test system: MDA-N
# [3] = test system: COLO 205
# [4] = test system: IGROV-1
# [5] = test system: Hs-578T
# [6] = test system: RPMI-8226
# [7] = test system: BT-549
# [8] = test system: MCF7
# [9] = test system: SF-295
# [10] = test system: LOX IMVI
# [11] = test system: SR
# [12] = test system: HOP-62
# [13] = test system: CCRF-CEM
# [14] = test system: MDA-MB-435
# [15] = test system: EKVX
# [16] = test system: SF-539
# [17] = test system: SNB-75
# [18] = test system: DU-145
# [19] = test system: A498
# [20] = test system: CAKI-1
SMILES,GI50 [1],GI50 [2],GI50 [3],GI50 [4],GI50 [5],GI50 [6],GI50 [7],GI50 [8],GI50 [9],GI50 [10],GI50 [11],GI50 [12],GI50 [13],GI50 [14],GI50 [15],GI50 [16],GI50 [17],GI50 [18],GI50 [19],GI50 [20]
C=C1CC(COc2ccc3c(C)cc(=O)oc3c2)(c2ccccc2)OC1=O (stereo not given),12.1 µM (inactive),1.95 µM (inactive),1.34 µM (inactive),1.84 µM (inactive),6.82 µM (inactive),0.292 µM (active),1.74 µM (inactive),1.13 µM (inactive),6.85 µM (inactive),1.26 µM (inactive),1.7 µM (inactive),13.1 µM (inactive),281 nM (active),2.43 µM (inactive),9.29 µM (inactive),2.45 µM (inactive),6.95 µM (inactive),2.48 µM (inactive),2.64 µM (inactive),1.64 µM (inactive)
[N-]=[N+]=NC1C(O)C(CO)OC1n1ccc(N)nc1=O (stereo not given),245 µM (inactive),93.1 µM (inactive),160 µM (inactive),310 µM (inactive),532 µM (inactive),223 µM (inactive),161 µM (inactive),24 µM (inactive),530 µM (inactive),232 µM (inactive),28.5 µM (inactive),104 µM (inactive),444 nM (active),44.3 µM (inactive),429 µM (inactive),165 µM (inactive),430 µM (inactive),212 µM (inactive),91.8 µM (inactive),185 µM (inactive)
COc1cc(CC(C)C(C)Cc2ccc(O)c(OC)c2)ccc1O (stereo not given) [DIHYDROGUAIARETIC ACID],> 50 µM (inactive),17.3 µM (inactive),> 50 µM (inactive),12.7 µM (inactive),8.15 µM (inactive),7.93 µM (inactive),15.1 µM (inactive),17.9 µM (inactive),17.2 µM (inactive),11.5 µM (inactive),9.2 µM (inactive),23.9 µM (inactive),13300 nM (inactive),13 µM (inactive),15.5 µM (inactive),31.8 µM (inactive),14.2 µM (inactive),22.3 µM (inactive),18.5 µM (inactive),16.9 µM (inactive)
COC(=O)C1(Cc2ccccc2C)Cc2ccc(C)cc2C1=O (stereo not given),89.7 µM (inactive),29.9 µM (inactive),19.5 µM (inactive),70.5 µM (inactive),33.2 µM (inactive),17 µM (inactive),49.1 µM (inactive),20 µM (inactive),34.4 µM (inactive),19.7 µM (inactive),13.9 µM (inactive),56.4 µM (inactive),48000 nM (inactive),32.3 µM (inactive),41.4 µM (inactive),37.5 µM (inactive),58.3 µM (inactive),56.8 µM (inactive),31.3 µM (inactive),36.1 µM (inactive)
COc1c(OC(C)=O)c(OC(C)=O)cc2c1-c1ccc(OC)c(=O)cc1C(NC(C)=O)CC2 (stereo not given),2.61 µM (inactive),< 0.01 µM (active),0.0171 µM (active),0.0254 µM (active),< 0.01 µM (active),< 0.0142 µM (active),> 100 µM (inactive),< 0.01 µM (active),0.0424 µM (active),< 0.0147 µM (active),0.0128 µM (active),0.0635 µM (active),13 nM (active),< 0.01 µM (active),8.51 µM (inactive),< 0.0122 µM (active),< 0.01 µM (active),0.0525 µM (active),0.0513 µM (active),0.054 µM (active)
C[C@H]1[C@H]2[C@H](C[C@@]3(C)C4=CC[C@H]5C(C)(C)[C@@H](OC6OCC(O)C(O)C6O)CC[C@@]56C[C@@]46CC[C@]23C)O[C@@]2(O)[C@@H]1OC(C)(C)[C@H]2O (stereo not given in full),4.75 µM (inactive),2.28 µM (inactive),2.67 µM (inactive),0.918 µM (active),0.682 µM (active),1.15 µM (inactive),1.86 µM (inactive),0.867 µM (active),0.429 µM (active),1.48 µM (inactive),1.54 µM (inactive),1.78 µM (inactive),791 nM (active),0.984 µM (active),1.12 µM (inactive),1.95 µM (inactive),1.62 µM (inactive),1.02 µM (active),1.89 µM (inactive),2.05 µM (inactive)
Cc1c2ncccc2c(C)c2c1[nH]c1ccc(O)cc12,11.3 µM (inactive),4.93 µM (inactive),10.4 µM (inactive),3.89 µM (inactive),1.08 µM (active),2 µM (inactive),13.7 µM (inactive),2.65 µM (inactive),2.48 µM (inactive),1.71 µM (inactive),1.74 µM (inactive),1.86 µM (inactive),1330 nM (inactive),7.64 µM (inactive),1.4 µM (inactive),6.55 µM (inactive),4.07 µM (inactive),7.23 µM (inactive),13.3 µM (inactive),3.32 µM (inactive)
